Columns and labels:
[1] = tested on: EAE-induced DA rats; assay: EAE-induced DA rat model, paralysis score and mortality (DA-EAE-28-01, Example 12); assay type: in vivo; conditions: 54 EAE induced DA rats; daily s.c. injection, 6 total; peptide dose 50 μg (mixtures 150 μg); deaths/N
Procedure: Each of the seven formulations being evaluated was provided as a lyophilized powder and stored at 4° C. Rehydration of each daily group dose was done with water for injection according to Table 6. MBP peptide formulations were re-suspended in water for injection (Cure Medical) and copaxone (Teva LTD) was diluted with Saline to a final concentration of 150 μg/mL. Each subject animal was administered the test formulation for 6 consecutive days by subcutaneous injection.
9 week old Dark Agouti (DA) female rats (Harlan Laboratories, Inc.), weighing between 125 and 145 grams were used as the test subjects. The health status of the animals used in this study was examined on arrival. Only animals in good health were acclimatized to laboratory conditions and were used in the study. Animals were provided Protein Rodent Diet (Teklad) ad libitum and free access to drinking water. Animals were housed in a controlled environment at between 20° C. and 24° C. with a relative humidity of 30-70% and a 12 hr light/12 hr dark cycle. Animals were randomly assigned to their respective test group. This study was performed following the review by the Committee for Ethical Conduct in the Care and Use of Laboratory Animals of the Assaf Harofeh medical center, Beer Yaakov, Ethical Committee number: 68/2009.
For induction of EAE, rats were intradermally injected at the base of the tail with a total volume of 200 μl of inoculum containing 50 μg of MBP(63-81) (ANASPEC), in saline mixed (1:1) with CFA, (IFA, Sigma) and 1 mg Mt (strain H37 RA; Difco Laboratories, Detroit, Mich.).
The rats were evaluated up daily starting 24 hours after immunization. […]
7-10 days post EAE induction, 54 animals were divided to 9 groups (6 rats in each), and blood was collected from 2 rats of each group before the initiation of the treatment. […] The animals were maintained and evaluated until day 28th post EAE-induction. […]
Animals were observed individually and clinical signs were recorded once daily during all study periods. […] The body weight of each animals was determined daily during all study periods. […]

[2] = tested on: anti-MBP autoantibody; assay: Serum anti-MBP autoantibody titer in EAE DA rats (Example 11); assay type: in vivo; conditions: EAE DA rats treated as in Example 10
Procedure: To determine anti-MBP autoantibody binding patters in sera from the EAE-induced rodent models and human MS patients, ELISA experiments were performed as follows. Microtiter plates (MaxiSorp-Nunc) were coated with 50 μl of a 10 μg/ml MBP solution or recombinant MBP peptides in 100 mM carbonate/bicarbonate buffer pH 9.0, in odd column wells. Plates were sealed with ELISA plate sealer (Costar) and incubated at 4° C. overnight and then washed (300 μl/well) three times with phosphate-buffered saline (PBS) containing 0.15% Tween-20. All the wells were then blocked with 250 μl 2% bovine serum albumin (BSA) (Sigma) in carbonate/bicarbonate buffer pH 9.0 and incubated for 1 hr at 37° C. The plates were washed with PBS containing 0.15% Tween-20. Serum antibodies were diluted in PBS containing 0.15% Tween-20 and 0.5% BSA at the final dilution of 1:1000-1:50000, and 50 μl of the diluted sample was added to each well of the plate. Rat anti-MBP monoclonal antibody (ab7349, Abcam) was used as control. […] The OD450 values were measured using a microplate reader Varioscan (Thermo, USA).
To investigate the immunological status of EAE induced DA rats after treatment with liposomally encapsulated MBP peptides, serum isolated from rats treated as described in Example 10 was analyzed for anti-MBP antibodies and CNS cytokine staining (FIG. 5). […]

Substance: glatiramer acetate [copaxone]
- Mortality Rate [1]: 2/6
- Serum anti-MBP Antibody titer [2]: 1.0 ± 0.1
